Source: ChEMBL document CHEMBL4665887, “Identification, Structure-Activity Relationships of Marine-Derived Indolocarbazoles, and a Dual PKCθ/δ Inhibitor with Potent Antipancreatic Cancer Efficacy” (J Med Chem, 2020)

Legend:
[1] = Toxicity in BALB/c mouse model of patient-derived xenograft implanted with patient-derived pancreatic cancer cells assessed as effect on body weight at 6 mg/kg, iv dosed once every 2 days for 18 days relative to control; type: organism-based; details: in vivo, 432 h, time 18 day
[2] = Toxicity in BALB/c mouse model of patient-derived xenograft implanted with patient-derived pancreatic cancer cells assessed as effect on normal anatomical structures of liver at 6 mg/kg, iv dosed once every 2 days for 18 days relative to control; type: organism-based; details: in vivo, 432 h, time 18 day
A549 = assay: Cytotoxicity in human A549 cells assessed as reduction in cell viability incubated for 24 hrs by CCK8 assay; type: functional, cell-based; details: A549, 24 h
RKO = assay: Cytotoxicity in human RKO cells assessed as reduction in cell viability incubated for 24 hrs by CCK8 assay; type: functional, cell-based
[3] = Toxicity in BALB/c mouse model of patient-derived xenograft implanted with patient-derived pancreatic cancer cells assessed as effect on normal anatomical structures of spleen at 6 mg/kg, iv dosed once every 2 days for 18 days relative to control; type: organism-based; details: in vivo, 432 h, time 18 day
BXPC-3 [4] = assay: Induction of apoptosis in human BXPC-3 cells assessed as necrotic cells level at 0.5 uM incubated for 24 hrs by PI and annexin V-FITC staining based flow cytometry (reference value: 0.05%); type: functional
BXPC-3 [5] = assay: Antitumor activity against human BXPC-3 cells xenografted in nude BALB/c mouse assessed as inhibition of tumor growth at 6 mg/kg, iv QD for 18 days relative to control; type: functional; details: BXPC-3, iv, 432 h, time 18 day, read-out: TGI
NCI-H1299 = assay: Cytotoxicity in human NCI-H1299 cells assessed as reduction in cell viability incubated for 24 hrs by CCK8 assay; type: functional, cell-based; details: NCI-H1299, 24 h
[6] = biological target: Protein kinase C theta type (Homo sapiens, UniProt Q04759); assay: Inhibition of PKCtheta (unknown origin) by HTRF assay
Protein kinase C theta type, sequence (Q04759 whole entry): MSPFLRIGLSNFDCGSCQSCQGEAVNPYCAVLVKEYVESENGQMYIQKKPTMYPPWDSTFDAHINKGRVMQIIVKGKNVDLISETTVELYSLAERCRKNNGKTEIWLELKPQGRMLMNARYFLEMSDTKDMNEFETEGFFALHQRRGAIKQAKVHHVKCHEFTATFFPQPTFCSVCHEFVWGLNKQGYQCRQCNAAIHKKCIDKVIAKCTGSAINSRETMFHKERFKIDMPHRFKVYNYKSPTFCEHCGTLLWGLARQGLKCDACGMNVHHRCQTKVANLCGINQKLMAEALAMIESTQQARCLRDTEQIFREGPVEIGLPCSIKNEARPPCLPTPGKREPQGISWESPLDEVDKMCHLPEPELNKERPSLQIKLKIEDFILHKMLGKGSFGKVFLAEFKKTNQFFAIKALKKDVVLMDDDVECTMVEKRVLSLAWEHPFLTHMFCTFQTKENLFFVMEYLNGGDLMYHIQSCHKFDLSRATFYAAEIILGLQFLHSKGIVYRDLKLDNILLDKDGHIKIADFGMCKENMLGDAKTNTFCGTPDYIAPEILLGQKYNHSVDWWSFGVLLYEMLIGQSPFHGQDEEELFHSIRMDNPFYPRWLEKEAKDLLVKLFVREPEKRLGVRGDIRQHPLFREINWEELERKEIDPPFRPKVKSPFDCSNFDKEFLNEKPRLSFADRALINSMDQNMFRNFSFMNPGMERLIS

BXPC-3 [7] = assay: Induction of apoptosis in human BXPC-3 cells assessed as necrotic cells level at 0.25 uM incubated for 24 hrs by PI and annexin V-FITC staining based flow cytometry (reference value: 0.05%); type: functional
BXPC-3 [8] = assay: Induction of apoptosis in human BXPC-3 cells assessed as late apoptotic cells level at 0.5 uM incubated for 24 hrs by PI and annexin V-FITC staining based flow cytometry (reference value: 0.83%); type: functional
BXPC-3 [9] = assay: Induction of apoptosis in human BXPC-3 cells assessed as viable cells level at 0.25 uM incubated for 24 hrs by PI and annexin V-FITC staining based flow cytometry (reference value: 93.43%); type: functional
BXPC-3 [10] = assay: Induction of apoptosis in human BXPC-3 cells assessed as viable cells level at 0.5 uM incubated for 24 hrs by PI and annexin V-FITC staining based flow cytometry (reference value: 93.43%); type: functional
[11] = Effect in PKCtheta protein expression in human BXPC-3 cells at 0.25 to 1 uM incubated for 4 hrs by Western blot analysis; type: ADME, cell-based; details: bxpc-3, 4 h, dose 0.25-1 µM
[12] = Antitumor activity against patient-derived pancreatic cancer cells xenografted in BALB/c mouse model of patient-derived xenograft assessed as inhibition of tumor growth at 6 mg/kg, iv dosed once every 2 days for 18 days relative to control; type: functional; details: Homo sapiens, Pancreatic cancer cell, 432 h, time 18 day, read-out: TGI
BXPC-3 [13] = assay: Induction of apoptosis in human BXPC-3 cells assessed as late apoptotic cells level at 0.25 uM incubated for 24 hrs by PI and annexin V-FITC staining based flow cytometry (reference value: 0.83%); type: functional
[14] = Toxicity in BALB/c mouse model of patient-derived xenograft implanted with patient-derived pancreatic cancer cells assessed as effect on normal anatomical structures of lung at 6 mg/kg, iv dosed once every 2 days for 18 days relative to control; type: organism-based; details: in vivo, 432 h, time 18 day
ASPC1 = assay: Cytotoxicity in human ASPC1 cells assessed as reduction in cell viability incubated for 24 hrs by CCK8 assay; type: functional, cell-based; details: ASPC1, 24 h
PC-9 = assay: Cytotoxicity in human PC-9 cells assessed as reduction in cell viability incubated for 24 hrs by CCK8 assay; type: functional, cell-based; details: PC-9, 24 h
MGC-803 = assay: Cytotoxicity in human MGC-803 cells assessed as reduction in cell viability incubated for 24 hrs by CCK8 assay; type: functional, cell-based; details: MGC-803, 24 h
[15] = biological target: Protein kinase C delta type (Homo sapiens, UniProt Q05655); assay: Inhibition of PKCdelta (unknown origin) by HTRF assay
Protein kinase C delta type, sequence (Q05655 whole entry): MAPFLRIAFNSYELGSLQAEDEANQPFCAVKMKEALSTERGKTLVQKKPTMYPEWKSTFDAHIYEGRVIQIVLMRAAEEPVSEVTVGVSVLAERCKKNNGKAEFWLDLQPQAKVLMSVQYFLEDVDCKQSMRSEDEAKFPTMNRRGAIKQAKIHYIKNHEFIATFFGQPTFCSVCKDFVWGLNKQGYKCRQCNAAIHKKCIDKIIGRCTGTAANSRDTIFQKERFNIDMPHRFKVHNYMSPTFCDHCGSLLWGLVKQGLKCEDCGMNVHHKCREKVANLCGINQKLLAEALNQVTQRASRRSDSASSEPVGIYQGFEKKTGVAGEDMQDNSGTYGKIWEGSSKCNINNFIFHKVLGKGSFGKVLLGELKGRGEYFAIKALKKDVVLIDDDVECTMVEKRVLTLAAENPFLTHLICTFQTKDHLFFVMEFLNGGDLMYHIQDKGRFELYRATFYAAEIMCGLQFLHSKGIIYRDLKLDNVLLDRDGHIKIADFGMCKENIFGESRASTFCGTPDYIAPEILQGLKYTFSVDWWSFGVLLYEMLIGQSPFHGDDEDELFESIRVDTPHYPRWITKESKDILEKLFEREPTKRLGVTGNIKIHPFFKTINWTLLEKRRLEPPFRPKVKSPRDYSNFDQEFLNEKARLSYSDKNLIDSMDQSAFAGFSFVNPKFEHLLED

[16] = Toxicity in BALB/c mouse model of patient-derived xenograft implanted with patient-derived pancreatic cancer cells assessed as effect on normal anatomical structures of heart at 6 mg/kg, iv dosed once every 2 days for 18 days relative to control; type: organism-based; details: in vivo, 432 h, time 18 day
BXPC-3 [17] = assay: Induction of apoptosis in human BXPC-3 cells assessed as early apoptotic cells level at 0.5 uM incubated for 24 hrs by PI and annexin V-FITC staining based flow cytometry (reference value: 5.69%); type: functional
[18] = Toxicity in BALB/c mouse model of patient-derived xenograft implanted with patient-derived pancreatic cancer cells assessed as effect on normal anatomical structures of kidney at 6 mg/kg, iv dosed once every 2 days for 18 days relative to control; type: organism-based; details: in vivo, 432 h, time 18 day
[19] = Toxicity in nude BALB/c mouse xenografted with human BXPC-3 cells assessed as effect on body weight level at 6 mg/kg, iv QD for 18 days relative to control; type: organism-based; details: in vivo, 432 h, time 18 day
NCI-H1975 = assay: Cytotoxicity in human NCI-H1975 cells assessed as reduction in cell viability incubated for 24 hrs by CCK8 assay; type: functional, cell-based; details: NCI-H1975, 24 h
BXPC-3 [20] = assay: Induction of apoptosis in human BXPC-3 cells assessed as early apoptotic cells level at 0.25 uM incubated for 24 hrs by PI and annexin V-FITC staining based flow cytometry (reference value: 5.69%); type: functional
BXPC-3 [21] = assay: Cytotoxicity in human BXPC-3 cells assessed as reduction in cell viability incubated for 24 hrs by CCK8 assay; type: functional, cell-based; details: BXPC-3, 24 h

SMILES: CN[C@@H]1C[C@H]2O[C@@](C)([C@@H]1OC)n1c3ccccc3c3c4c(c5c6ccccc6n2c5c31)C(=O)NC4=O (stereo in doubt; 15)
- Activity [1]: Non-Toxic
- Activity [2]: Non-Toxic
- IC50 (A549): 0.78 µM
- IC50 (RKO): 1.47 µM
- Activity [3]: Non-Toxic
- Activity (BXPC-3 [4]): 0.59%
- inhibition in vivo at 6 mg/kg (BXPC-3 [5]): 49.6%
- IC50 (NCI-H1299): 2.03 µM
- IC50 [6]: 0.006 µM
- Activity (BXPC-3 [7]): 0.04%
- Activity (BXPC-3 [8]): 6.89%
- Activity (BXPC-3 [9]): 63.54%
- Activity (BXPC-3 [10]): 46.45%
- Activity [11]: Non-Toxic
- inhibition in vivo at 6 mg/kg [12]: 56.9%
- Activity (BXPC-3 [13]): 2.66%
- Activity [14]: Non-Toxic
- IC50 (ASPC1): 1.2 µM
- IC50 (PC-9): 1.88 µM
- IC50 (MGC-803): 1.52 µM
- IC50 [15]: 0.021 µM
- Activity [16]: Non-Toxic
- Activity (BXPC-3 [17]): 46.07%
- Activity [18]: Non-Toxic
- Activity [19]: Non-Toxic
- IC50 (NCI-H1975): 2.01 µM
- Activity (BXPC-3 [20]): 33.77%
- IC50 (BXPC-3 [21]): 0.43 µM
